Experimental data from ChEMBL document CHEMBL3817833, “Synthesis and evaluation of antitubercular activity of fluorinated 5-aryl-4-(hetero)aryl substituted pyrimidines” (Bioorg Med Chem, 2016).
Converted amounts (≈) assume the structure as drawn.

Test system: Mycobacterium tuberculosis
Test: Antimycobacterial activity against rifampin and isoniazid resistant-Mycobacterium tuberculosis Beijing harboring Ser 531 to Leu 315 and Ser to Thr in rpoB and katG genes mutation after 24 hrs by microbroth dilution method
Type: functional

SMILES | MIC
FC(F)(F)c1ccc(-c2cncnc2-c2cccs2)cc1 | 40.81 µM (≈ 12.5 µg/mL)
Fc1cc(F)cc(-c2cncnc2)c1 | 3.64 µM (≈ 0.699 µg/mL)
FC(F)(F)c1ccc(-c2cncnc2-c2cccs2)c(C(F)(F)F)c1 | 16.56 µM (≈ 6.2 µg/mL)
Fc1ccc(-c2cncnc2-c2ccco2)c(F)c1 | 48.41 µM (≈ 12.5 µg/mL)
Fc1ccccc1-c1cncnc1 | 71.76 µM (≈ 12.5 µg/mL)
Fc1cccc(-c2cncnc2-c2ccco2)c1 | 6.24 µM (≈ 1.5 µg/mL)
Fc1ccc(-c2cncnc2)cc1 | 71.76 µM (≈ 12.5 µg/mL)
FC(F)(F)c1cccc(-c2cncnc2-c2ccco2)c1 | 43.07 µM (≈ 12.5 µg/mL)
FC(F)(F)c1ccccc1-c1cncnc1-c1cccs1 | 20.24 µM (≈ 6.2 µg/mL)
c1ccc(-c2cncnc2)cc1 | 80.03 µM (≈ 12.5 µg/mL)
FC(F)(F)c1ccc(-c2cncnc2-c2ccco2)cc1 | 43.07 µM (≈ 12.5 µg/mL)
Fc1ccccc1-c1cncnc1-c1ccco1 | 52.03 µM (≈ 12.5 µg/mL)
FC(F)(F)c1ccccc1-c1cncnc1 | 27.66 µM (≈ 6.2 µg/mL)
FC(F)(F)c1cccc(-c2cncnc2)c1 | 55.76 µM (≈ 12.5 µg/mL)
FC(F)(F)c1ccc(-c2cncnc2-c2ccco2)c(C(F)(F)F)c1 | 1.95 µM (≈ 0.699 µg/mL)
FC(F)(F)c1cc(-c2cncnc2-c2ccco2)cc(C(F)(F)F)c1 | 8.65 µM (≈ 3.1 µg/mL)
Fc1cccc(-c2cncnc2)c1 | 35.88 µM (≈ 6.25 µg/mL)

SMILES | MIC
FC(F)(F)c1ccc(-c2cncnc2)c(C(F)(F)F)c1 | 42.78 µM (≈ 12.5 µg/mL)
c1ccc(-c2cncnc2-c2ccco2)cc1 | 1.57 µM (≈ 0.349 µg/mL)
CC1COc2c(N3CCN(C)CC3)c(F)cc3c(=O)c(C(=O)O)cn1c23 (centres undefined) [OFLOXACIN] | 0.28 µM (≈ 0.101 µg/mL)
c1ccc(-c2cncnc2-c2cccs2)cc1 | 26.02 µM (≈ 6.2 µg/mL)
Fc1ccccc1-c1cncnc1-c1cccs1 | 12.5 µM (≈ 3.2 µg/mL)
Fc1cccc(-c2cncnc2-c2cccs2)c1 | 12.5 µM (≈ 3.2 µg/mL)
Fc1ccc(-c2cncnc2-c2cccs2)cc1 | 12.5 µM (≈ 3.2 µg/mL)
FC(F)(F)c1ccccc1-c1cncnc1-c1ccco1 | 43.07 µM (≈ 12.5 µg/mL)
FC(F)(F)c1cc(-c2cncnc2)cc(C(F)(F)F)c1 | 5.13 µM (≈ 1.5 µg/mL)
Fc1ccc(-c2cncnc2-c2ccco2)cc1 | 52.03 µM (≈ 12.5 µg/mL)
Fc1ccc(-c2cncnc2-c2cccs2)c(F)c1 | 45.57 µM (≈ 12.5 µg/mL)
FC(F)(F)c1ccc(-c2cncnc2)cc1 | 55.76 µM (≈ 12.5 µg/mL)
Fc1ccc(-c2cncnc2)c(F)c1 | 16.13 µM (≈ 3.1 µg/mL)
FC(F)(F)c1cccc(-c2cncnc2-c2cccs2)c1 | 4.9 µM (≈ 1.5 µg/mL)
Fc1cc(F)cc(-c2cncnc2-c2cccs2)c1 | 45.57 µM (≈ 12.5 µg/mL)
Fc1cc(F)cc(-c2cncnc2-c2ccco2)c1 | 24.01 µM (≈ 6.2 µg/mL)
FC(F)(F)c1cc(-c2cncnc2-c2cccs2)cc(C(F)(F)F)c1 | 33.39 µM (≈ 12.5 µg/mL)
